The test system of one experiment is S. pneumoniae ATCC 49619. In words: agar plate dilution MIC, S. pneumoniae ATCC 49619. The class given is cell-based. Conditions: Streptococcus pneumoniae, ATCC49619, Iso-Sensitest agar pH 7.2, 18 to 24 hr incubation. On the procedure:
(§1) The susceptibilities of two strains of bacteria to the compounds of Example 1–4 were determined by a standard agar plate dilution method following recommendations in British Society for Antimicrobial Chemotherapy Working Party. 1991, “A guide to sensitivity testing British Society for Antimicrobial Chemotherapy, London, United Kingdom”. Briefly, Iso-Sensitest agar (pH 7.2: Oxoid, United Kingdom) is employed, supplemented with 5% horse blood (Oxoid) and 20 μg of NAD (Sigma) per ml are added to support growth of fastidious bacteria. The inoculum used is approximately 10^4 colony forming units of each isolate contained in a volume of 1 μl. Plates are incubated 18 to 24 hr in air, or for fasidious bacteria an atmosphere enriched with 4–6% carbon dioxide at 35° C. The MIC is determined as the lowest concentration of an antimicrobial tested that inhibited growth of the inoculum, disregarding a single persisting colony or faint haze caused by the inoculation.

A further experiment deals with S. aureus ATCC 29213. Kind of experiment: agar plate dilution MIC, S. aureus ATCC 29213. The class given is cell-based. Conditions: Staphylococcus aureus, ATCC29213, Iso-Sensitest agar pH 7.2, 18 to 24 hr incubation. On the procedure:
as §1

Structures are written as SMILES. In brackets after ≈: the same amount, converted by molar mass.

With `CC(C)(C)[C@H](NC(=O)[C@H](CC1CCCC1)CN(O)C=O)c1nc2cc(F)ccc2[nH]1` [Example 1, 2R-Cyclopentylmethyl-N-[1S-(5-fluoro-1H-benzoimidazol-2-yl)-2,2-dimethyl-propyl]-3-(formyl-hydroxy-amino)-propionamide], the MIC in the experiment on S. pneumoniae ATCC 49619 amounted to 2 µg/mL (≈ 4.78 µM); against S. aureus ATCC 29213 it was 4 µg/mL (≈ 9.56 µM).
For `CC(C)(C)[C@H](NC(=O)[C@H](CC1CCCC1)CN(O)C=O)c1nc2ccccc2[nH]1` [Example 3, N-[1-(1H-Benzoimidazol-2-yl)-2,2-dimethyl-propyl]-2-cyclopentylmethyl-3-(formyl-hydroxy-amino)-propionamide], the MIC was found to be 2 µg/mL (≈ 4.99 µM) against S. pneumoniae ATCC 49619 and 8 µg/mL (≈ 20 µM) with S. aureus ATCC 29213.
With `CCCC[C@H](CN(O)C=O)C(=O)N[C@H](c1nc2ccccc2[nH]1)C(C)(C)C` [Example 4, 2-[(Formyl-hydroxy-amino)-methyl]-hexanoic acid [1-(1H-benzoimidazol-2-yl)-2,2-dimethyl-propyl]-amide], the MIC was determined as 4 µg/mL (≈ 10.7 µM) in the experiment on S. pneumoniae ATCC 49619 and 8 µg/mL (≈ 21.4 µM) with S. aureus ATCC 29213.
Taken in the same sequence, the figures for `CC(C)(C)[C@H](NC(=O)[C@H](CC1CCCC1)CN(O)C=O)c1nc2cc(Cl)ccc2[nH]1` [Example 2, N-[1-(5-Chloro-1H-benzoimidazol-2-yl)-2,2-dimethyl-propyl]-2-cyclopentylmethyl-3-(formyl-hydroxy-amino)-propionamide] were 2 µg/mL (≈ 4.6 µM) and 8 µg/mL (≈ 18.4 µM).

By MIC is commonly meant the smallest concentration in the dilution series that meets the test's criterion for growth inhibition. A higher MIC goes with a less susceptible organism.

For the origin of these results see patent US7173053B2, “N-formyl hydroxylamine derivatives as inhibitors of bacterial polypeptide formylase for treating microbial infections” (British Biotech Pharmaceuticals Limited, priority 2000, dated 2007).
